# Assay results as given in patent US20250221982A1, “COMPOSITIONS AND METHODS FOR LOCAL DELIVERY OF PHARMACEUTICAL AGENTS TO TREAT CANCER” (The General Hospital Corporation, priority 2018, published 2025).
# Tests used:
# B16-F10 melanoma cells = test: Topical calcipotriene plus IP DMXAA against subcutaneous B16-F10 melanoma in mice; assay type: in vivo, mouse (wild-type C57BL/6); conditions: for T cell (CD3+CD19−) infiltrate within the treated melanoma tumors / proliferation (Ki67+) of CD4+ and CD8+ tumor infiltrating T lymphocytes (melanoma tumors): flow cytometry at harvest; for cutaneous melanoma growth (tumor volume over time): three applications, topical calcipotriene 40 nmol, IP DMXAA 400 μg, compared to EtOH plus saline, p=0.019 for the combination
# Protocol: (2A) Schematic diagram of the experimental protocol used to determine the efficacy of calcipotriene plus DMXAA as a localized immunotherapy for melanoma. B16-F10 melanoma cells are implanted subcutaneously into the flanks of wild-type C57BL/6 mice. When tumors reached 5 mm in diameter (day 14), the following treatments were applied three times: (a) 40 nmol calcipotriene in 20 microliters of 100% EtOH followed by IP injection of 400 μg DMXAA in 100 μl saline, (b) 40nmol calcipotriene in 20 microliters of 100% EtOH followed by IP injection of 100 μl saline, (c) 20 microliters of 100% EtOH followed by IP injection of 400 μg DMXAA in 100 μl saline, and (d) 20 microliter 100% EtOH followed by IP injection of 100 μl saline.
# Melanoma Cells (B16-F10, ATCC, Manassas, VA) were injected subcutaneously into flanks of mice at 2×10^5 cells per 100 μl of 1:1 ratio of DMEM (Corning) at day 0. Flank regions of recipient mice were shaved prior to cancer cell injection. Topical treatment with calcipotriene or EtOH together with intraperitoneal (IP) injection of DMXAA (murine STING agonist, 5,6-Dimethylxanthenone-4-acetic Acid, ASA404, or Vadimezan) or normal saline were initiated when tumor sizes reached 5 mm in diameter. Mice were divided into 4 groups and were treated topically with either calcipotriene (40 nmol) or ethanol (EtOH) as carrier directly on the tumor sites. Following treatment of either calcipotriene or EtOH (control), mice were injected IP with either 400 μg DMXAA in 100 μl normal saline or normal saline alone (control). Calcipotriene/EtOH and DMXAA/saline treatments were re-applied two more times (FIG. 2A). Animals were monitored daily and tumors measured over time to determine the impact of treatments on melanoma growth. At harvest, tumors were weighed, and the tumor infiltrating T cells were profiled using flow cytometry.
# [1] = test system: PyMTtg primary breast cancer cells; test: Topical treatment of subcutaneous PyMTtg breast cancer tumors in mice; assay type: in vivo, mouse (wild-type C57BL/6); conditions: two topical applications; calcipotriene 80 nmol, imiquimod 5% cream; compared to EtOH plus control cream; p=0.011 for the combination
# Excerpt: PyMTtg primary breast cancer cells are implanted subcutaneously into the inguinal regions of wild-type C57BL/6 mice. When tumors reached 5 mm in diameter (day 13), the following topical treatments applied to the tumor sites twice: (a) 80nmol calcipotriene in 20 microliters of 100% EtOH followed by 5% imiquimod cream, (b) 80nmol calcipotriene in 20 microliter 100% EtOH followed by moisturizing (control) cream, (c) 20 microliter 100% EtOH followed by 5% imiquimod cream, and (d) 20 microliter 100% EtOH followed by moisturizing (control) cream.
# Breast cancer cells were obtained from PyMTtg mice that develop spontaneous breast cancer resembling luminal type of breast cancer in humans^12. Breast cancers of PyMTtg mice were harvested before the tumors reached 2 cm in diameter. Cancers were excised and dissociated into single cell suspension. Breast cancer cells were re-suspended at a concentration of 1×10^6 cells per 100 μl of 1:1 ratio of RPMI and Matrigel Membrane Matrix (Corning). Inguinal regions of recipient mice were shaved prior to cancer cell injection. 1×10^6 cells were injected subcutaneously at day 0. Topical treatments were applied when tumor sizes reached 5 mm in diameter. […] Animals were monitored daily and tumors measured over time to determine the impact of topical treatments on breast cancer growth. […]
SMILES,T cell (CD3+CD19−) infiltrate within the treated melanoma tumors (B16-F10 melanoma cells),proliferation (Ki67+) of CD4+ and CD8+ tumor infiltrating T lymphocytes (melanoma tumors) (B16-F10 melanoma cells),cutaneous melanoma growth (tumor volume over time) (B16-F10 melanoma cells),cutaneous breast tumor growth (tumor volume over time) [1]
"Cc1ccc2c(=O)c3cccc(CC(=O)O)c3oc2c1C [DMXAA, 5,6-Dimethylxanthenone-4-acetic Acid]",absent,absent,did not show a significant impact on melanoma development,–
CC(C)Cn1cnc2c(N)nc3ccccc3c21 [imiquimod],–,–,–,did not show a significant impact on breast cancer growth
C=C1/C(=C\C=C2/CCC[C@]3(C)[C@@H]([C@H](C)/C=C/[C@@H](O)C4CC4)CC[C@@H]23)C[C@@H](O)C[C@@H]1O [calcipotriene],absent,absent,showed efficacy in inhibiting melanoma growth,did not show a significant impact on breast cancer growth
